Data reported in patent publication US20160199343A1, “COMPOUNDS AND FORMULATIONS FOR THE TREATMENT OF WOUNDS” (NITTO DENKO CORPORATION, priority 2013, published 2016).

Assays:
[1] = system: 3T3 mouse fibroblast; experiment: In vitro scratch assay; type: cell-based; conditions: 3000 μM in culture medium, followed up to 12 hrs post scratching, linear regression
Description: The compounds of Formula (1) and (1a) were also tested by means of an in vitro model of wound healing. An in vitro scratch assay was performed as was described in Nature Protocols by Liang et al., 2007. In short, 3T3 mouse fibroblast were seeded onto a fibronectin coated 6-well plate and the confluent monolayers were scratched with a 200 μl pipette tip to obtain a linear gap in the monolayer. The closure of this monolayer was then followed up to 12 hrs post scratching. In order to evaluate the effect of the compound (isosorbide, isoidide and isomannide) either 30 μM or 3000 μM of the test compound were added to the culture medium. The increased dose was applied as the model cannot be entirely related to the in vivo situation as the closure time of this model is considerably faster as the in vivo wound (<18 hrs vs. weeks, resp.). The basic medium comprised DMEM, FCS 5%, HEPES 20 mM, L-glutamine 4 mM and 1% pen/strep. Hereto either nothing or the aforementioned concentrations of test compounds were added.

[2] = system: full-thickness skin wounds; experiment: Mouse full-thickness skin wound model, scar analysis by histology; type: in vivo; conditions: for reduction in scar index: full thickness excisional wounds in mice, same application formulation, versus control group
Description: The mouse model used here can be considered one of the simplest and standard murine models for investigating scar formation and wound healing.
Mice were weighed and then anaesthetized with 5% isoflurane in air for induction and then administered 2.5-3% of isoflurane in air for the remainder of the procedure. The animals were administered Tramal (Tramadol) intraperitoneally for analgesia at a 0.1 mg/kg dose. Before surgery the back of the mice was shaved and disinfected with isobetadine soap, rinsed with water and then swabbed with iodium alcohol.
The back of the mice was shaved and four full-thickness skin wounds were performed by cutting the folded skin on the back of the mice with a 7.5 mm×3 mm elliptical biopsy punch (Elliptical Excisional Instrument, Acuderm Inc.). The skin on the back was raised and folded at the level of the vertebral column by using the thumb and the index finger. The folded skin was then placed on a wood tongue depressor with the animal laying on one side and two wounds were performed through the folded skin by using an elliptical biopsy punch (Elliptical Excisional Instrument, Acuderm Inc.), resulting in four wounds on the back skin: two on the right of the vertebral column and two on the left (FIG. 9). The epidermis, the dermis and the fat tissue in the wound was carefully removed without touching other tissues. The wounds were then immediately treated with topical application of either the hydrogel or the ointment (glycerol+HEPES buffer) formulation containing the active substance (T1 and T2) or vehicle (Tv) and one wound was (Ts) left untreated (FIG. 9). The position of the wounds was randomised according to a list. The wound site was then covered with OP-Film (Somed International, the Netherlands) (FIG. 9). The borders were then fixed with cyanoacrylate glue (Loctite).
This model is identical to the excisional model above except that the wounds were closed with three sutures.
The treatment was repeated at the day 1, 2, 3 and 4 post-surgery for a total of 5 treatments in the first 5 days of healing. At each time point the mice were briefly anaesthetized with isoflurane and a new dose of ointment was injected through the film onto the wound, after which the animal was left to recover. At day 5 all films were removed.
After 14 days the mice were sacrificed under isoflurane anaesthesia by cervical dislocation to harvest the regenerated tissue. At sacrifice the mice were weighed and a gross necropsy was performed during which the following tissues are harvested:
Skin samples were also taken. The back of the mouse was carefully shaved paying careful attention to not touch the wound area. […]
The extent of scarring was measured in accordance with the procedure set out by Khorasani et al (2011). […]

[3] = system: S. aureus; conditions: cited from earlier work
[4] = system: infected and other superficial wounds; conditions: 120 patients, wounds treated with sugar; cited from earlier work

SMILES	effect on closure speed (reduction) [1]	Scar index compared to Vehicle-treated / control group (statistics) ([2]; 1-way ANOVA with Dunnet's comparison, p<0.05)	Collagen organisation trend ([2]; mouse wounds, upon administration)	sugar solution concentration affecting complete in vitro growth of S. aureus [3]	curing rate [4]	reduction in scar index [2]
O[C@@H]1CO[C@H]2[C@@H]1OC[C@@H]2O [Isosorbide]	10%	significantly different from Control and Vehicle	increased values			
OC[C@H]1O[C@@](CO)(O[C@H]2O[C@H](CO)[C@@H](O)[C@H](O)[C@H]2O)[C@@H](O)[C@@H]1O [sugar, sucrose]				183 g/100 g water	99.2%	
O[C@@H]1CO[C@H]2[C@@H]1OC[C@H]2O [Isomannide, 1,4:3,6-dianhydro-D-mannitol]	23%					38%
O[C@H]1CO[C@H]2[C@@H]1OC[C@@H]2O [Isoidide, 1,4:3,6-Dianhydro-D-iditol]	27%					44%
